≈ marks a conversion by molar mass, not a printed value.
How the values were obtained:
E. coli HS151 (qnrVC) = assay: Broth microdilution MIC, E. coli HS151 (qnrVC); assay type: cell-based
Text: (§1) E. coli HS151 (ΔtolC) has been described previously. Gyrase inhibitor-resistant isolates (GYR101-108) were derived by selection for spontaneous resistance to MRL-770 or MRL-423 (Fig 1) in E. coli HS151 as described below. E. coli BW25113 and the Keio gene deletion collection based on BW25113 [25] were obtained from Thermo Fisher Scientific (Waltham, MA) and described in [26]. The plasmid-borne FQ resistance determinant, qnrVC3 [27], was kindly provided by D. Hooper (Massachusetts General Hospital). MB9796 (A. baumannii) is a derivative of MB9797 (ATCC19606) lacking lipopolysaccharide. The efflux-defective P. aeruginosa strain MB5890 (CB398) is a derivative of MB5919 (PAO1). MB2884 (E. coli) and CL15245 (K. pneumoniae) are clinical isolates from the Merck & Co., Inc., Kenilworth, NJ, USA, strain collection. S. aureus COL is a methicillin-resistant clinical isolate.
(§2) Compound doubling dilutions were prepared in 100% DMSO (Sigma Aldrich) and 2 μL of each dilution was transferred to a 96-well plate with lid (Thermo Scientific). Inoculum for all MIC testing was prepared using the BBL Prompt Inoculation System (Becton Dickinson, Franklin Lakes, NJ USA) as described by the manufacturer to produce a suspension of cells at approximately 1.5 x 10^8 colony forming units (CFU)/mL [34–36] and a further dilution (1:1000) was made into cation adjusted Mueller-Hinton broth (CAMH broth, Becton-Dickinson). One hundred μL of this inoculum were then transferred to each well of the 96-well plate containing diluted compound (above). Plates were covered and incubated overnight (18 hrs.) at 37°C.

E. coli BW25113 ΔtolC = assay: Broth microdilution MIC, E. coli BW25113 ΔtolC; assay type: cell-based; conditions: Escherichia coli
Text: as §1, §2
The yacG deletion allele from the Keio collection was amplified by PCR (primers: […] and […]) and moved to BW25113 ΔtolC as described below. The E. coli strain BW25113 ΔtolC containing pKD46 [25] was used to inoculate SOB (Invitrogen)/0.2% w/v arabinose (Sigma Aldrich)/ampicillin (100 μg/mL) and grown overnight at 30°C. The overnight culture was then diluted 1/40 into 20 mL fresh SOB/0.2% w/v arabinose/ampicillin (100 μg/mL) and grown at 30°C while shaking for ~3 hrs until OD600 = 0.5. […]

[1] = system: E. coli BW25113 ΔtolC/ΔyacG; assay: Broth microdilution MIC, E. coli BW25113 ΔtolC/ΔyacG; assay type: cell-based
Description: as §2
The yacG deletion allele from the Keio collection was amplified by PCR (primers: […] and […]) and moved to BW25113 ΔtolC as described below. The E. coli strain BW25113 ΔtolC containing pKD46 [25] was used to inoculate SOB (Invitrogen)/0.2% w/v arabinose (Sigma Aldrich)/ampicillin (100 μg/mL) and grown overnight at 30°C. The overnight culture was then diluted 1/40 into 20 mL fresh SOB/0.2% w/v arabinose/ampicillin (100 μg/mL) and grown at 30°C while shaking for ~3 hrs until OD600 = 0.5. Cells were pelleted by centrifugation at 4000 rpm for 10 min, washed with 40 mL ice cold sterile, distilled H2O, then 3 x 1 mL ice cold 10% glycerol followed by centrifugation at 5000 g for 3 minutes. The pellet was resuspended in 100 μL of 10% glycerol (1/200 of starting culture). For transformation, 5 μL of gel purified PCR product was added to 50 μL cells, mixed, and immediately electroporated in a 0.2 cm gap cuvette at 2.5kV, 25 μF, 200 Ω (BioRad, Hercules, CA USA). Electroporated cells were recovered in 1 mL SOC (Invitrogen)/0.2% arabinose at 37°C for 2 hours with shaking. Cells in amounts of 50 and 950 μL were then plated on LB agar supplemented with kanamycin (25 μg/mL) and incubated overnight at 37°C. Correct gene replacements were verified by PCR.

S. aureus DNA gyrase = target: T1, S. aureus DNA gyrase (Staphylococcus aureus, UniProt P0A0K8); assay: S. aureus DNA gyrase supercoiling reaction; assay type: biochemical; conditions: maximum achievable concentration (200 μM), pHOT-1 supercoiling
T1 construct: purchased TopoGEN, Inc
T1 sequence (P0A0K8 whole entry): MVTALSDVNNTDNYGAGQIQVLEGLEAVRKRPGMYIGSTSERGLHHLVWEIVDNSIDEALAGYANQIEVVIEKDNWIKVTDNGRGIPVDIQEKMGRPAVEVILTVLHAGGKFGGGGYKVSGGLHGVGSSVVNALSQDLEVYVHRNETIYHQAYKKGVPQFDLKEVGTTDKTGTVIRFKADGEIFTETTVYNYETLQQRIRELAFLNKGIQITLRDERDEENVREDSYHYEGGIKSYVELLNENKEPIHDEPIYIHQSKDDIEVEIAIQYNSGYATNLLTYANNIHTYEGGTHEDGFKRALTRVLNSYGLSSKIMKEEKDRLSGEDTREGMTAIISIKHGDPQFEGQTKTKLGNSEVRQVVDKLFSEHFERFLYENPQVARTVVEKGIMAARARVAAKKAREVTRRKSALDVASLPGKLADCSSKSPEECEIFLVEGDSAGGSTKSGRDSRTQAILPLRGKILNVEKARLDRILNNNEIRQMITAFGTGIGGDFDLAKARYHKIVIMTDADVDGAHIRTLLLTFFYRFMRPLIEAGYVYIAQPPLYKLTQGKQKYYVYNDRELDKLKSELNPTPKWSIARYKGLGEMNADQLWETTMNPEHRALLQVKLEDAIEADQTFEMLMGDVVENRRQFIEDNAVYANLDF
T1 sequence (P20831 whole entry, further chain): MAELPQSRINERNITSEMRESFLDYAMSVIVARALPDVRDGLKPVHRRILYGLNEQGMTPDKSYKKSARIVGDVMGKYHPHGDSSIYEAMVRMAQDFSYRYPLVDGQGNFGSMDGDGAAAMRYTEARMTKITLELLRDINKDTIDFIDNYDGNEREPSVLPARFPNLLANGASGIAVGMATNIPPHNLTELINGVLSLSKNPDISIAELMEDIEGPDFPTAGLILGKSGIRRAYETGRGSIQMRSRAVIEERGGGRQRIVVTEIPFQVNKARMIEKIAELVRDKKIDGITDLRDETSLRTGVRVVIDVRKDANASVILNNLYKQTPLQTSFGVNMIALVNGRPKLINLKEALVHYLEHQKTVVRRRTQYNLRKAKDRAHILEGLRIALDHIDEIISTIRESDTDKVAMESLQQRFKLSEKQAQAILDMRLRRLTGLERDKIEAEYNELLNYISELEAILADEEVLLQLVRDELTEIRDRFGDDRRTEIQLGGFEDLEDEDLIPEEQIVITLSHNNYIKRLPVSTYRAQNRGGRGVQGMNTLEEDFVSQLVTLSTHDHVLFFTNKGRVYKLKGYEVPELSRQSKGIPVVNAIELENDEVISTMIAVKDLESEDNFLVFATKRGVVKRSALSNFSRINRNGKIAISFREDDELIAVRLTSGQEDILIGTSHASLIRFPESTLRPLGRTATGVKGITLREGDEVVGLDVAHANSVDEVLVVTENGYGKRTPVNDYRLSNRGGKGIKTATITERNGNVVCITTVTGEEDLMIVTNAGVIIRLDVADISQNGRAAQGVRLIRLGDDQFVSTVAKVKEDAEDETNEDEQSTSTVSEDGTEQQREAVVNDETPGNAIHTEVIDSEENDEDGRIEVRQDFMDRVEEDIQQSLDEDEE

Structure (SMILES) | resistance conferred by qnrVC3 expression (E. coli HS151 (qnrVC); E. coli HS151 with plasmid qnrVC3 vs HS151) | MIC (E. coli HS151 (qnrVC); Escherichia coli) [µg/mL] | MIC (E. coli BW25113 ΔtolC) [µg/mL] | effect of deletion of yacG on potency ([1]; E. coli BW25113 (ΔtolC) ΔyacG) | MIC ([1]; Escherichia coli, BW25113) [µg/mL] | activity against S. aureus DNA gyrase (S. aureus DNA gyrase)
Cn1ncc2cc(-c3cnnn3C3CCN(C(=O)Nc4cc(Cl)cc(Cl)c4)CC3)ccc21 [MRL-423] | no effect | 0.25 (≈ 0.532 µM) | 0.25 (≈ 0.532 µM) | does not affect the potency | 0.25 (≈ 0.532 µM) | –
Cn1ncc2cc(-c3nnnn3C3CCN(C(=O)Nc4ccc(Cl)c(Cl)c4)CC3)ccc21 [MRL-1082] | – | – | – | – | – | does not inhibit

From paper PMC5507300, “Antibacterial small molecules targeting the conserved TOPRIM domain of DNA gyrase” (PLoS ONE, 2017)
